Tests used:
soybean = assay: Test B pre/postemergence soybean; type: in vivo, Glycine max
Outline: (§1)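 Test chemicals in a non-phytotoxic solvent mixture with surfactant were sprayed preemergence onto planted seeds and postemergence onto plants 2 to 18 cm tall (1- to 4-leaf stage). After twelve to sixteen days in a greenhouse, injury was visually rated against untreated controls from 0 (no effect) to 10 (complete control).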

sugar beet = assay: Test B pre/postemergence sugar beet; type: in vivo, Beta vulgaris
Outline: as §1

corn = assay: Test B pre/postemergence corn; type: in vivo, Zea mays
Outline: as §1

wheat = assay: Test B pre/postemergence wheat; type: in vivo, Triticum aestivum
Outline: as §1

crabgrass = assay: Test B pre/postemergence crabgrass; type: in vivo, Digitaria sanguinalis
Outline: as §1

cocklebur = assay: Test B pre/postemergence cocklebur; type: in vivo, Xanthium strumarium
Outline: as §1

bamyardgrass = assay: Test B flood test barnyardgrass; type: in vivo, Echinochloa crus-galli
Outline: (§2)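 Each value is a visual injury score relative to controls, with 10 meaning complete control and 0 no effect. Evaluation took place twelve to sixteen days after the 2-leaf-stage plants were treated and kept in the greenhouse.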

pigweed = assay: Test B pre/postemergence pigweed; type: in vivo, Amaranthus retroflexus
Outline: as §1

rape = assay: Test B pre/postemergence rape; type: in vivo, Brassica napus
Outline: as §1

purple nutsedge = assay: Test B pre/postemergence purple nutsedge; type: in vivo, Cyperus rotundus
Outline: as §1

smallflower flatsedge = assay: Test B flood test smallflower flatsedge; type: in vivo, Cyperus difformis
Outline: as §2

blackgrass = assay: Test B pre/postemergence blackgrass; type: in vivo, Alopecurus myosuroides
Outline: as §1

velvetleaf = assay: Test B pre/postemergence velvetleaf; type: in vivo, Abutilon theophrasti
Outline: as §1

bedstraw = assay: Test B pre/postemergence bedstraw; type: in vivo, Galium aparine
Outline: as §1

surinam grass = assay: Test B pre/postemergence surinam grass; type: in vivo, Brachiaria decumbens
Outline: as §1

wild oat = assay: Test B pre/postemergence wild oat; type: in vivo, Avena fatua
Outline: as §1

[1] = Postemergence, Rate 62 g/ha, scale 0 to 10, 0 is no effect, 10 is complete control
[2] = Postemergence, Rate 250 g/ha, scale 0 to 10, 0 no effect, 10 complete control
[3] = Preemergence, Rate 31 g/ha, visual rating, scale 0 to 10 (0 no effect, 10 complete control)
[4] = Preemergence, Rate 62 g/ha, scale 0 to 10, 0 is no effect, 10 is complete control
[5] = Preemergence, Rate 125 g/ha, scale 0 to 10 (0 no effect, 10 complete control)
[6] = Preemergence, Rate 250 g/ha, scale of 0 to 10 where 0 is no effect and 10 is complete control
[7] = Rate 125 g/ha, Postemergence, scale 0 to 10, 0 no effect, 10 complete control
[8] = Rate 31 g/ha, Postemergence, scale 0 to 10
[9] = Rate 125 g/ha, Postemergence section (flood test species), scale 0 to 10, 0 no effect, 10 complete control
[10] = flood test, listed under Postemergence, Rate 250 g/ha, scale 0 to 10, 0 no effect, 10 complete control

## CCN(C(=O)n1oc(=O)n(-c2ccc(C)cc2C)c1=O)C1CCCCC1 [Compound 26]
soybean; [1]
  Soybean plant response rating: 1
soybean; [2]
  Soybean plant response rating: 2
soybean; [3]
  Soybean plant response rating: 0
soybean; [4]
  Plant response rating, Soybean: 0
soybean; [5]
  Plant response rating, Soybean: 0
soybean; [6]
  Plant response rating, Soybean: 0
soybean; [7]
  Soybean plant response rating: 1
Sugar beet; [1]
  Sugarbeets plant response rating: 0
Sugar beet; [2]
  Sugarbeets plant response rating: 0
Sugar beet; [3]
  Sugarbeets plant response rating: 0
Sugar beet; [4]
  Plant response rating, Sugarbeets: 0
Sugar beet; [5]
  Plant response rating, Sugarbeets: 0
Sugar beet; [6]
  Plant response rating, Sugarbeets: 0
Sugar beet; [7]
  Sugarbeets plant response rating: 0
corn; [1]
  Corn plant response rating: 0
corn; [2]
  Corn plant response rating: 0
corn; [3]
  Corn plant response rating: 0
corn; [4]
  Plant response rating, Corn: 0
corn; [5]
  Plant response rating, Corn: 0
corn; [6]
  Plant response rating, Corn: 0
corn; [8]
  Corn plant response rating: 0
corn; [7]
  Corn plant response rating: 0
wheat; [1]
  Wheat plant response rating: 0
wheat; [2]
  Wheat plant response rating: 0
wheat; [3]
  Wheat plant response rating: 0
wheat; [4]
  Plant response rating, Wheat: 0
wheat; [5]
  Plant response rating, Wheat: 0
wheat; [6]
  Plant response rating, Wheat: 0
wheat; [7]
  Wheat plant response rating: 0
crabgrass; [1]
  Crabgrass plant response rating: 0
crabgrass; [2]
  Crabgrass plant response rating: 1
crabgrass; [3]
  Crabgrass plant response rating: 0
crabgrass; [4]
  Plant response rating, Crabgrass: 0
crabgrass; [5]
  Plant response rating, Crabgrass: 0
crabgrass; [6]
  Plant response rating, Crabgrass: 3
crabgrass; [8]
  Crabgrass plant response rating: 0
crabgrass; [7]
  Crabgrass plant response rating: 0
cocklebur; [1]
  Cocklebur plant response rating: 0
cocklebur; [2]
  Cocklebur plant response rating: 0
cocklebur; [3]
  Cocklebur plant response rating: 0
cocklebur; [4]
  Plant response rating, Cocklebur: 0
cocklebur; [5]
  Plant response rating, Cocklebur: 0
cocklebur; [6]
  Plant response rating, Cocklebur: 0
cocklebur; [8]
  Cocklebur plant response rating: 0
cocklebur; [7]
  Cocklebur plant response rating: 0
bamyardgrass; [1]
  Barnyardgrass plant response rating: 0
bamyardgrass; [9]
  Barnyardgrass plant response rating: 0
bamyardgrass; Rate 500 g/ha, Postemergence section of Table B, 0 to 10 scale (0 no effect, 10 complete control)
  Barnyardgrass plant response rating: 0
bamyardgrass; [10]
  Barnyardgrass plant response rating: 0
pigweed; [1]
  Redroot pigweed plant response rating: 0
pigweed; [2]
  Redroot pigweed plant response rating: 0
pigweed; [3]
  Redroot pigweed plant response rating: 0
pigweed; [4]
  Plant response rating, Redroot pigweed: 0
pigweed; [5]
  Plant response rating, Redroot pigweed: 0
pigweed; [6]
  Plant response rating, Redroot pigweed: 0
pigweed; [8]
  Redroot pigweed plant response rating: 0
pigweed; [7]
  Redroot pigweed plant response rating: 0
rape; [1]
  Rape plant response rating: 0
rape; [2]
  Rape plant response rating: 0
rape; [3]
  Rape plant response rating: 0
rape; [4]
  Plant response rating, Rape: 0
rape; [5]
  Plant response rating, Rape: 0
rape; [6]
  Plant response rating, Rape: 0
rape; [8]
  Rape plant response rating: 0
rape; [7]
  Rape plant response rating: 0
Purple nutsedge; [1]
  Nutsedge plant response rating: 0
Purple nutsedge; [2]
  Nutsedge plant response rating: 0
Purple nutsedge; [3]
  Nutsedge plant response rating: 0
Purple nutsedge; [4]
  Plant response rating, Nutsedge: 0
Purple nutsedge; [5]
  Plant response rating, Nutsedge: 0
Purple nutsedge; [6]
  Plant response rating, Nutsedge: 0
Purple nutsedge; [8]
  Nutsedge plant response rating: 0
Purple nutsedge; [7]
  Nutsedge plant response rating: 0
Smallflower flatsedge; [1]
  S. Flatsedge plant response rating: 0
Smallflower flatsedge; [9]
  S. Flatsedge plant response rating: 0
Smallflower flatsedge; [10]
  S. Flatsedge plant response rating: 0
blackgrass; [1]
  Blackgrass plant response rating: 0
blackgrass; [2]
  Blackgrass plant response rating: 0
blackgrass; [3]
  Blackgrass plant response rating: 0
blackgrass; [4]
  Plant response rating, Blackgrass: 0
blackgrass; [5]
  Plant response rating, Blackgrass: 0
blackgrass; [6]
  Plant response rating, Blackgrass: 0
blackgrass; [8]
  Blackgrass plant response rating: 0
blackgrass; [7]
  Blackgrass plant response rating: 0
velvetleaf; [1]
  Velvetleaf plant response rating: 0
velvetleaf; [2]
  Velvetleaf plant response rating: 0
velvetleaf; [3]
  Velvetleaf plant response rating: 0
velvetleaf; [4]
  Plant response rating, Velvetleaf: 0
velvetleaf; [5]
  Plant response rating, Velvetleaf: 0
velvetleaf; [6]
  Plant response rating, Velvetleaf: 0
velvetleaf; [7]
  Velvetleaf plant response rating: 0
bedstraw; [1]
  Bedstraw plant response rating: 0
bedstraw; [2]
  Bedstraw plant response rating: 0
bedstraw; [3]
  Bedstraw plant response rating: 0
bedstraw; [4]
  Plant response rating, Bedstraw: 0
bedstraw; [5]
  Plant response rating, Bedstraw: 0
bedstraw; [6]
  Plant response rating, Bedstraw: 0
bedstraw; [8]
  Bedstraw plant response rating: 0
bedstraw; [7]
  Bedstraw plant response rating: 0
Surinam grass; [1]
  B. signalgrass plant response rating: 0
Surinam grass; [2]
  B. signalgrass plant response rating: 0
Surinam grass; [3]
  B. signalgrass plant response rating: 0
Surinam grass; [4]
  Plant response rating, B. signalgrass: 0
Surinam grass; [5]
  Plant response rating, B. signalgrass: 0
Surinam grass; [6]
  Plant response rating, B. signalgrass: 2
Surinam grass; [8]
  B. signalgrass plant response rating: 0
Surinam grass; [7]
  B. signalgrass plant response rating: 0
Wild oat; [1]
  Wild oats plant response rating: 0
Wild oat; [2]
  Wild oats plant response rating: 0
Wild oat; [3]
  Wild oats plant response rating: 0
Wild oat; [5]
  Plant response rating, Wild oats: 0
Wild oat; [6]
  Plant response rating, Wild oats: 0
Wild oat; [7]
  Wild oats plant response rating: 0

Source: US6737383B1, “Herbicidal oxadiazolidines” (priority 1999, dated 2004)
